US20220339127A1, “DRUGGABLE TARGET TO TREAT RETINAL DEGENERATION” (The United States of America,as represented by the …, priority 2019, published 2022)
“Also recorded” adds a separate entry of the source.

How the values were obtained:
Type in all cases: cell-based, human
iRPE cells [1] = assay: A23187 cytotoxicity on iRPE cells (CellTitrGlo ATP release)
Description: It was hypothesized that the loss of epithelial phenotype/RPE dedifferentiation is a key AMD cellular phenotype and easier to set up for a high throughput screen. Drugs that would suppress RPE dedifferentiation and recover the epithelial phenotype in cells might also work to rescue additional AMD cellular endophenotypes. Drug screen was designed using a calcium-ionophore A23187 instead of CC-HS serum, for three reasons: 1) CC-HS lost activity in liquid handler tubing used for medium change, likely because active complement proteins were absorbed on the walls of liquid handler tubes; 2) Similar to A23187, CC-HS treatment of iRPE also led to a defect in intracellular calcium homeostasis.
10 μM concentration of A23187 was selected for the drug screening, because it provided a bigger margin for cell death rescue. A commercially available library of pharmaceutically active compounds (LOPAC) with 1280 drugs was used for the screen at two different concentrations 9.2 μM and 46 μM. […]

iRPE cells [2] = assay: Proteotoxic high throughput screen (LOPAC) and follow up screen: survival of A23187 treated iRPE; details: seven-point dose curve; A23187 2.5, 5, 10 μM; two iRPE samples
Description: 10 μM concentration of A23187 was selected for the drug screening, because it provided a bigger margin for cell death rescue. […] Drug treatment along with the stressor, 10 μM A23187 were added on to iRPE cells matured in 384-well plates and cell death was scored 48 hours later by ATP release using the CellTitrGlo assay.
To distinguish false positives from the real signal, a follow up screen on all of the 45 drugs using iRPE derived from two different iPSC lines was performed. The follow up screen was performed at three different A23187 concentrations (2.5, 5, 10 μM) and with seven different concentrations of drugs ranging from 10 nM-1 mM (FIG. 13D-F). […] Overall, the HTS screen provided two drugs for testing in the in vitro AMD model.

AMPK = assay: Phospho-AMPK ELISA in iPSC-RPE of L-ORD patients and unaffected siblings; details: for p-AMPK levels: 0% serum, 2 mM AICAR or 500 nM BAM15
Description: Thus, in FIG. 16b iPSC-RPE were incubated with recombinant CTRP5 globular form (0.2 μg/mL gCTRP5) for 30 min in the presence (+) and absence (−) of serum to evaluate its role in AMPK signaling.
To better elucidate the ADIPOR1-CTRP5 (receptor-ligand) interaction, […] a ligand dose response curve was performed (in serum free media) by exogenously adding increasing concentrations of recombinant full length CTRP5 (FIG. 16c).
AMPK is a sensitive indicator of the cell energy status and is canonically activated by the levels of AMP or ATP (Hardie and Lin, 2017). Therefore, the AMPK activity (in serum free media) of sibling and patient iPSC-RPE under conditions (increased AMP:ATP ratio) known to stimulate AMPK phosphorylation was characterized (FIG. 16d). iPSC-RPE were incubated in serum deprived media for 5 hours (Park et al., 2009) followed by 30 mins exposure to AICAR (an AMP analogue) or BAM15 (a mitochondrial uncoupler to reduce ATP production).
Metformin treatment consisted of 3 mM metformin added to the apical and basal media for 1½- 2 weeks.

ABCA1 = assay: Bodipy lipid deposits in CC-HS treated Stargardt iRPE with ABCA1 activator; details: 10 μM
Description: 115(36): p. 9014-9019]. […] To further understand the ABCA4 driven mechanism in disease pathogenesis, this example focuses on ABCA1- an ABCA4 homolog, involved in cholesterol transport. […] Journal of Biological Chemistry, 2013. 288(48): p. 34414-34426, Tanaka, A. R., et al., Human ABCA1 contains a large amino-terminal extracellular domain homologous to an epitope of Sjögren's Syndrome. Biochemical and biophysical research communications, 2001. 283(5): p. 1019-1025, Storti, F., et al., Impaired ABCA1/ABCG1-mediated lipid efflux in the mouse retinal pigment epithelium (RPE) leads to retinal degeneration. Elife, 2019. 8: p. e45100.]. To determine if both ABCA proteins work through the lipid handling pathway, the effects of modulating ABCA1 expression on changes the disease phenotype in Stargardt RPE cells was observed. An shRNA knockdown of ABCA1 in ABCA4 iRPE cells was performed and the cells were treated with CC-HS. […] (FIG. 34A-G), In contrast, lipid accumulation defects in Stargardt RPE cells were rescued by ABCA1 overactivation using GW3965 (ABCA1 activator) (FIG. 34 H-N).

iRPE cells [3] = assay: Sub-RPE APOE deposits in CC-HS treated iRPE with receptor blockers; details: concurrent use of compstatin 10 μM (C3aR1 blocker) and PMX053 10 μM (C5aR1 blocker) in CC-HS
Description: It was hypothesized that CC-HS triggered AMD cellular phenotypes in iRPE cells are generated by the anaphylatoxin arm of the complement pathway via C3a-C3aR1 and C5a-05aR1 signaling induced intracellular inflammation (Fernandez-Godino and Pierce 2018). RNAseq confirmed the expression of both receptors in iRPE cells with ˜30× higher expression in of C5aR1 as compared to C3aR1 (FIG. 10A). Furthermore, the expression of both receptors increases with CC-HS treatment. Western blot confirmed C3aR1 and C5aR1 receptors localization in the membrane fraction of iRPE cells (FIG. 2A). […] To verify that CC-HS activates C3aR and C5aR signaling in iRPE cells, samples were checked for phosphorylation of AKT and ERK1/2, the two key kinases downstream of C3aR1 and C5aR1 receptors (Hajishengallis and Lambris 2010; Zhu et al 2015 Mol Vis; Busch et al 2017 Front. In Immu.). […] Furthermore, consistent with the predominant apical localization of C3aR1 and C5aR1, apical only treatment of CC-HS caused a 4.5-5×TER drop (p<10^−16), similar to the combined apical/basal treatment of CC-HS. In contrast, basal only treatment of CC-HS resulted only in a 2×TER drop (p<10^−16) (FIG. 2H). To further dissect the role of C5aR1 and C3aR1 signaling in inducing AMD cellular phenotypes in iRPE cells, a depleted sera and receptor blocker strategy was employed. […]

iRPE monolayer = assay: Transepithelial resistance (TER) of CC-HS treated iRPE monolayer; details: compstatin 10 μM and PMX053 10 μM used together in CC-HS
Description: Lastly, it was checked if the drugs rescued mature RPE phenotype and RPE functionality.

[4] = unaffected siblings, 5h 0% serum, 30 min, 25 ug/mL

CNc1ccc2oc(C[C@H]3O[C@@]4(CC[C@H]3C)O[C@H]([C@H](C)C(=O)c3ccc[nH]3)[C@H](C)C[C@H]4C)nc2c1C(=O)O [A23187]
cell death (iRPE cells [1]; 2.5 μM A23187, 48 hours): 50%
toxicity to iRPE cells (iRPE cells [1]; 96 hours, 2.5, 10, 25 μM A23187): completely toxic; also recorded: cytotoxic

COc1cc2ncnc(Nc3cccc(Cl)c3)c2cc1OC [AG-1478]
cytoprotective activity in follow up screen (iRPE cells [2]): linear response the seven-point dose curve and reproducibility between two different iRPE samples

NC(=O)c1ncn([C@@H]2O[C@H](CO)[C@@H](O)[C@H]2O)c1N [AICAR]
p-AMPK levels (AMPK; L-ORD patient RPE, 30 min): insensitive
p-AMPK levels (AMPK; unaffected siblings, 30 min): stimulates further phosphorylation of AMPK; also recorded: further elevation in AMPK levels

Fc1ccccc1Nc1nc2nonc2nc1Nc1ccccc1F [BAM15]
p-AMPK levels (AMPK; L-ORD patient RPE, 30 min): insensitive
p-AMPK levels (AMPK; unaffected siblings, 30 min): further stimulates phosphorylation of AMPK; also recorded: further elevation in AMPK levels

O=C(O)Cc1cccc(OCCCN(Cc2cccc(C(F)(F)F)c2Cl)CC(c2ccccc2)c2ccccc2)c1 [GW3965]
intra/sub-RPE bodipy-positive lipid deposits (ABCA1): rescued
intra/sub-RPE bodipy-positive lipid deposits (ABCA1; listed as GW 3965): reduced lipid deposit

CC[C@H](C)[C@H](N)C(=O)N[C@H]1CSSC[C@@H](C(=O)N[C@H](C(N)=O)[C@@H](C)O)NC(=O)[C@H](CCCN=C(N)N)NC(=O)[C@H](Cc2cnc[nH]2)NC(=O)[C@H](Cc2cnc[nH]2)NC(=O)CNC(=O)[C@H](Cc2c[nH]c3ccccc23)NC(=O)[C@H](CC(=O)O)NC(=O)[C@H](CCC(N)=O)NC(=O)[C@H](C(C)C)NC(=O)[C@H](C(C)C)NC1=O [compstatin]
lower sub-RPE APOE deposits compared to CC-HS plus vehicle (iRPE cells [3]): 2 ×
higher iRPE monolayer TER compared to CC-HS treated samples (iRPE monolayer): 5 ×

B1: recombinant full length CTRP5: recombinant full length CTRP5 (protein, UniProt Q9BXJ0 1-243, looked up)
chain: MRPLLVLLLLGLAAGSPPLDDNKIPSLCPGHPGLPGTPGHHGSQGLPGRDGRDGRDGAPGAPGEKGEGGRPGLPGPRGDPGPRGEAGPAGPTGPAGECSVPPRSAFSAKRSESRVPPPSDAPLPFDRVLVNEQGHYDAVTGKFTCQVPGVYYFAVHATVYRASLQFDLVKNGESIASFFQFFGGWPKPASLSGGAMVRLEPEDQVWVQVGVGDYIGIYASIKTDSTFSGFLVYSDWHSSPVFA
modifications: full-length
change in p-AMPK levels (AMPK; L-ORD patient RPE, similar concentrations, serum free): had no effect on AMPK activity; also recorded: no measurable change
p-AMPK level (AMPK; [4]): 47.89%±0.13
reduction in p-AMPK levels (AMPK; [4]): 50%
